Where “and” joins values, the source holds several entries; their conditions need not be identical. Equal values may be shown once.
These compounds were tested against T1, hS1P1 (Homo sapiens, UniProt P21453) (assay: hS1P1 EC50 (S1P receptor Ca2+ flux protocol, FLIPR, CHO K1 Gqi5 cells)). Details: several values per compound = repeat determinations as printed.
T1 construct: expressed in transfected cells
Format: cell-based
Experimental: S1P receptor activity may also be measured by an SIP receptor (e.g., hS1P1, hS1P3, rS1P1, rS1P3 and parental cell) Ca^2+ Flux protocol as described below: • 1. Material • a. FLIPR buffer: 1x HBSS; 10mM HEPES • b. Cell growth media: • i. human and rat S1P1 and S1P3: F12-Ham's media; 10% FBS (qualified); 1x Pen/Strep/Glu; 300ug/mL Hygromycin; 400ug/mL Geneticin ii. Parental cell: human and rat S1P and S1P3: F12-Ham's media; 10% FBS (qualified); 1x Pen/Strep/Glu; 300ug/mL Hygromycin; • c. Cell seeding media; F12-Ham's media; 10% FBS (Charcoal/dextran stripped); 1x Pen/Strep/Glu; • d. Cell dissociation buffer: Versene from Invitrogen • e. Agonist (SIP) dissolving buffer: 0.4% (w/v) fatty-acid free BSA (Sigma # A8806) in FLIPR buffer • f. FLIPR dye: BD PBX Calcium assay kit; Cat#641077 is composed of Calcium indicator (Cat#850000) and 100x PBX signal enhancer (cat#850001). The 100x PBX signal enhancer is diluted into FLIPR buffer 1:100 and the calcium indicator is then added at 1:1000 ratio. • g. Cell plates (96-well): Greiner Cat#655090 • h. Compound plates (96-well): Costar #3365 • i. S1P stock solution preparation: S1P is purchased from CalBioChem (Catalog # 970471; 1mg vial; custom prep using methanol, & nitrogen gas drying inside glass vial; Storage @ -20°C). Dissolve 1 vial of SIP into 26.4ml of agonist dissolving buffer in a 50ml centrifuge tube; Remove label from bottle of SIP, open and drop entire bottle into tube. Sonicate at 37° for ½ hour. Clear solution of 100µM will result. This stock solution is aliquoted and stored at -80C • 2. Cell line maintenance • a. V5 tags were added at the N-terminus of hS1P1, hS1P3, rS1P1 and rS1P3. All four genes were transfected into CHO K1 cells which stably express Gqi5. • b. hS1P1 and hS1P3 were established as stable clones and rS1P1 and rS1P3 were sorted by anti V5 tag and established as stable pools after sorting. • c. Parental cell line CHO/K1 Gqi5 is used as the control. • d. All the cells are maintained in cell growth media and splitted twice a week using Versene. • e. All the cell lines are used under passage 30. • 3. Assay protocol • a. Cell seeding: Cells are lifted from the flask by Versene and seeded in cell plates at 50K/well in cell seeding media. Cells are grown overnight at 37 degree. • b. Cell loading: Cell seeding media is discarded. Cells are loaded with 50ul of FLIPR dye at RT for 90 min. Signal is stable for up to 5 h after dye loading. • c. Agonist (S1P) preparation: Frozen stock of S1P is thawed out and sonicated at 37c for 30 minutes every time before use. The stock is then diluted into FLIPR buffer at proper concentration. • d. Compound preparation: Compounds are dissolved in DMSO. A 3x, 10 point dilution of the compounds are carried out in DMSO. Then the compounds are diluted into assay buffer133x so that the DMSO concentration is 0.75%. • e. Activity measurement: The fluorescence signal change of the cells upon compound addition is monitored in FLIPRtetra. 25ul of compound is transferred into the cell plates (50ul of FLIPR dye; DMSO concentration: 0.25%). Signal is recorded for 90sec after compound addition. Then 50ul of 500nM SIP is added in the cell plate, and signal is recorded for 90 seconds upon addition. • 4. Data analysis • a. Peak value is calculated for each compound/S1P addition • b. The peak value of S1P at 200nM is used as high control (100%), and the peak value of buffer only is used as low control (0%). • c. Data is normalized against high and low controls using the following equation: POC_S = 100*(RAW-LO)/(HI-LO) [formula] • d. Peak value is plotted against the concentration of compound. • e. Curve is fitted using the 4 parameter fit: Y = (A+(B/(1+(((x/C))^(∧)D)))) [formula] where: Y is POC_S (or POC) • X is compound concentration • A is the minimum (EC50min or IC50min) • B is the maxmum (EC50max or IC50max) • C is the inflection point (EC50IP or IC50IP) • D is the hill slope (EC50 slope or IC50 slope).

T1 sequence (P21453 whole entry): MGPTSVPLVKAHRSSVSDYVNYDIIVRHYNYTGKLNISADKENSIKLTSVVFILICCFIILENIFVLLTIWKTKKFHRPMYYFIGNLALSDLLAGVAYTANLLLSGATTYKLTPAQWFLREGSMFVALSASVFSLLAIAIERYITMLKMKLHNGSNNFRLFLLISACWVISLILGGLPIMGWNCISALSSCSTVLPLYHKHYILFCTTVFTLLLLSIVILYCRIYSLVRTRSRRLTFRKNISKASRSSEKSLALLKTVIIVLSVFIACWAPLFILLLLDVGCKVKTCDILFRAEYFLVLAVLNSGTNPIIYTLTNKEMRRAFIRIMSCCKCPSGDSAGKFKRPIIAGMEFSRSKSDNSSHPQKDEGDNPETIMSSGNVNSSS

SMILES | EC50
O=C(O)C1CN(Cc2cccc(-c3cc4cc(Cc5ccccc5)ccc4o3)c2)C1 [Reference Compound 96, 1-(3-(5-Benzylbenzofuran-2-yl)benzyl)azetidine-3-carboxylic acid] | 4830 nM
O=C(O)C1CCN(Cc2ccc(-c3cc4cc(C5CCCCC5)ccc4o3)cc2)CC1 [Reference Compound 7, 1-(4-(5-cyclohexylbenzofuran-2-yl)benzyl)piperidine-4-carboxylic acid] | 1600 nM
O=C(O)C1CN(Cc2ccc(-c3cc4cc(C5CCCCC5)ccc4o3)nc2)C1 [Reference Compound 17, 1-((6-(5-cyclohexylbenzofuran-2-yl)pyridin-3-yl)methyl)azetidine-3-carboxylic acid] | 720 nM and 302 nM
O=C(O)[C@@H]1CCCN(Cc2ccc(-c3cc4cc(Cc5ccccc5)ccc4o3)c(F)c2)C1 [Reference Compound 62, (3R)-1-((4-(5-Benzylbenzofuran-2-yl)-3-fluorophenyl)methyl)piperidine-3-carboxylic acid] | 5450 nM
O=C(O)CCN1CCc2cc(-c3cc4cc(OCC5CCCC5)ccc4o3)ccc2C1 [Reference Compound 57, 3-(6-(5-(cyclopentylmethoxy)benzofuran-2-yl)-3,4-dihydroisoquinolin.2(1H)-yl)propanoic acid] | 877 nM
Cc1cccc(-c2ccc3oc(-c4ccc(CN5CC(C(=O)O)C5)cc4)cc3c2)n1 [Reference Compound 18, 1-(4-(5-(6-methylpyridin-2-yl)benzofuran-2-yl)benzyl)azetidine-3-carboxylic acid] | 2900 nM
CCCCOc1ccc2oc(-c3ccc(CN4CC(C(=O)O)C4)s3)cc2c1 [Reference Compound 25, 1-((5-(5-butoxybenzofuran-2-yl)thiophen-2-yl)methyl)azetidine-3-carboxylic acid] | 1600 nM
O=C(O)CCN1CCc2cc(-c3cc4cc(C5CCCC5)ccc4o3)ccc2C1 [Reference Compound 37, 3-(6-(5-cyclopentylbenzofuran-2-yl)-3,4-dihydroisoquinolin-2(1H)-yl)propanoic acid] | 4170 nM
COc1cc(CN2CC(C(=O)O)C2)ccc1-c1cc2cc(C3CCCC3)ccc2o1 [Reference Compound 47, 1-((4-(5-cyclopentylbenzofuran-2-yl)-3-methoxyphenyl)methyl)azetidine-3-carboxylic acid] | 1070 nM
O=C(O)[C@H]1CCCN(Cc2ccc(-c3cc4cc(Cc5ccccc5)ccc4o3)c(F)c2)C1 [Reference Compound 63, (3S)-1-((4-(5-Benzylbenzofuran-2-yl)-3-fluorophenyl)methyl)piperidine-3-carboxylic acid] | 3340 nM
O=C(O)C1CN(Cc2ccc(-c3cc4cc(-c5ccccc5)ccc4o3)cc2)C1 [Reference Compound 1, 1-(4-(5-Phenylbenzofuran-2-yl)benzyl)azetidine-3-carboxylic acid] | 1200 nM
CCCCOc1ccc2cc(-c3ccc(CN4CC(C(=O)O)C4)cc3)oc2c1 [Reference Compound 21, 1-((4-(6-Butoxybenzofuran-2-yl)phenyl)methyl)azetidine-3-carboxylic acid] | 2000 nM
CC(CNCc1ccc(-c2cc3cc(Cc4ccccc4)ccc3o2)c(F)c1)C(=O)O (stereo not drawn) [Reference Compound 82, 3-(4-(5-Benzylbenzofuran-2-yl)-3-fluorobenzylamino)-2-methylpropanoic acid] | 1300 nM
CCCCOc1ccc2oc(-c3ccc(CN4CC(C(=O)O)C4)cc3OC)cc2c1 [Reference Compound 24] | 420 nM and 700 nM
O=C(O)C1CN(Cc2ccc(-c3cc4cc(-c5cccs5)ccc4o3)cc2)C1 [Reference Compound 28, 1-((4-(5-(thiophen-2-yl)benzofuran-2-yl)phenyl)methyl)azetidine-3-carboxylic acid] | 1800 nM
CCCCOc1ccc2oc(-c3ccc(CN4CC(C(=O)O)C4)cc3Cl)cc2c1 [Reference Compound 50, 1-((4-(5-Butoxybenzofuran-2-yl)-3-chlorophenyl)methyl)azetidine-3-carboxylic acid] | 266 nM
CCCCOc1ccc2oc(-c3ccc4c(c3)CCN(CCC(=O)O)C4)cc2c1 [Reference Compound 44, 3-(6-(5-butoxybenzofuran-2-yl)-3,4-dihydroisoquinolin-2(1H)-yl)propanoic acid] | 4440 nM

Continued by falling EC50, values first:

EC50 | SMILES
803 nM | O=C(O)C1CN(Cc2ccc(-c3cc4cc(OCC5CCCC5)ccc4o3)c(F)c2)C1 [Reference Compound 38, 1-(4-(5-(cyclopentylmethoxy)benzofuran-2-yl)-3-fluorobenzyl)azetidine-3-carboxylic acid]
630 nM | CC(C)CCc1ccc2oc(-c3ccc(CN4CC(C(=O)O)C4)cc3)cc2c1 [Reference Compound 20, 1-((4-(5-Isopentylbenzofuran-2-yl)phenyl)methyl)azetidine-3-carboxylic acid]
364 nM | O=C(O)C1CN(Cc2ccc(-c3nc4cc(Cc5ccccc5)ccc4o3)cc2)C1 [Reference Compound 113, 1-((4-(5-Benzylbenzo[d]oxazol-2-yl)phenyl)methyl)azetidine-3-carboxylic acid]
169 nM | O=C(O)C1CN(Cc2ccc(-c3cc4cc(Cc5cccc(F)c5)ccc4o3)c(F)c2)C1 [Reference Compound 76, 1-(3-Fluoro-4-(5-(3-fluorobenzyl)benzofuran-2-yl)benzyl)azetidine-3-carboxylic acid]
149 nM | O=C(O)C1CN(Cc2ccc(-c3nc4ccc(Cc5ccccc5)cc4s3)c(F)c2)C1 [Reference Compound 118, 1-((4-(6-Benzylbenzo[d]thiazol-2-yl)-3-fluorophenyl)methyl)azetidine-3-carboxylic acid]
99 nM | CC(c1ccccc1)c1ccc2oc(-c3ccc(CN4CC(C(=O)O)C4)cc3F)cc2c1 (stereo not drawn) [Reference Compound 90, 1-((3-Fluoro-4-(5-(1-phenylethyl)benzofuran-2-yl)phenyl)methyl)azetidine-3-carboxylic acid]
89 nM | O=C(O)C1CN(Cc2cc(F)c(-c3cc4cc(Cc5ccccc5)ccc4o3)c(F)c2)C1 [Reference Compound 48, 1-((4-(5-Benzylbenzofuran-2-yl)-3,5-difluorophenyl)methyl)azetidine-3-carboxylic acid]
80 nM | O=C(c1ccccc1)c1ccc2oc(-c3ccc(CN4CC(C(=O)O)C4)cc3F)cc2c1 [Reference Compound 102, 1-((4-(5-Benzoylbenzofuran-2-yl)-3-fluorophenyl)methyl)azetidine-3-carboxylic acid]
53 nM | O=C(O)C1CN(Cc2ccc(-c3cc4cc(Cc5ccc(F)cc5)ccc4o3)c(F)c2)C1 [Reference Compound 73, 1-(3-fluoro-4-(5-(4-fluorobenzyl)benzofuran-2-yl)benzyl)azetidine-3-carboxylic acid]
19 nM | O=C(O)C1CN(Cc2ccc(-c3nc4cc(Cc5ccccc5)ccc4o3)c(F)c2)C1 [Reference Compound 112, 1-((4-(5-Benzylbenzo[d]oxazol-2-yl)-3-fluorophenyl)methyl)azetidine-3-carboxylic acid]
